How the values were obtained:
[1] = tested on: HCV genotype 1a subgenomic replicon; test: HCV replicon assay, genotype 1a subgenomic replicon (luciferase); assay type: cell-based; details: Hepatitis C virus; genotype 1a replicon stable cell line, luciferase activity measured 48 hours later; read-out: Replicon 1A pEC50 (converted)
Experimental: (§1) Protocol for Testing and Data Analysis of Compounds in the HCV Replicon Assay
(§2) Compounds were assayed for activity against HCV using the genotype 1a and 1b subgenomic replicon model systems. Stable cell lines bearing the genotype 1a and 1b replicons were used for screening of compounds. Both replicons are bicistronic and contain the firefly luciferase gene. The ET cell line is stably transfected with RNA transcripts harboring a I389luc-ubi-neo/NS3-3′/ET replicon with firefly luciferase-ubiquitin-neomycin phosphotransferase fusion protein and EMCV-IRES driven NS3-5B polyprotein containing the cell culture adaptive mutations (E1202G; T1280I; K1846T) (Krieger at al, 2001 and unpublished). The genotype 1a replicon is a stable cell line licensed from Apath LLC, modified to contain the firefly luciferase gene. The cells were grown in DMEM, supplemented with 10% fetal calf serum, 2 mM Glutamine, Penicillin (100 IU/mL)/Streptomycin (100 μg/mL), 1× nonessential amino acids, and 250-500 μg/mL G418 (“Geneticin”). They were all available through Life Technologies (Bethesda, Md.). The cells were plated at 5×10^3 cells/well in 384 well plates containing compounds. The final concentration of compounds ranged between 0.03 pM to 50 μm and the final DMSO concentration of 0.5-1%.
(§3) Luciferase activity was measured 48 hours later by adding a Steady glo reagent (Promega, Madison, Wis.). Percent inhibition of replication data was plotted relative to no compound control. Under the same condition, cytotoxicity of the compounds was determined using cell titer glo (Promega, Madison, Ws). EC50s were determined from an 11 point dose response curve using 3-4-fold serial dilution for each compound, which spans a concentration range >1000 fold. The level of inhibition for each compound was determined with Activity Base or with BioAssay plus the Excel XC50 module. Percent inhibition was determined with the following equation where the cross-talk corrected value is the value from the test well, the compound positive control mean is the average value of the wells with no compound present, and the DMSO negative control mean is the average value of the wells with DMSO but no cells present.
(§4) [formula] These normalized values are exported to EC50 where they are plotted against the molar compound concentrations using the standard four parameter logistic equation: […]

[2] = tested on: HCV genotype 1b subgenomic replicon; test: HCV replicon assay, genotype 1b subgenomic replicon (ET cell line, luciferase); assay type: cell-based; details: Hepatitis C virus; genotype 1b replicon ET cell line, luciferase activity measured 48 hours later; read-out: Replicon 1B pEC50 (converted)
Experimental: as §1, §2, §3, §4

Molecule `COC(=O)NCC(=O)N1CC2(C[C@H]1c1ncc(-c3ccc(-c4ccc(-c5cnc([C@@H]6CCCN6C(=O)[C@@H](NC(=O)OC)C(C)C)[nH]5)cc4)cc3)[nH]1)SCCS2` [Example 14, methyl [(1S)-2-methyl-1-({(2S)-2-[4-(4′-{2-[(8S)-7-({[(methyloxy)carbonyl]amino}acetyl)-1,4-dithia-7-azaspiro[4.4]non-8-yl]-1H-imidazol-4-yl}-4-biphenylyl)-1H-imidazol-2-yl]-1-pyrrolidinyl}carbonyl)propyl]carbamate] has an EC50 [1] of 0.631 nM and an EC50 [2] of 0.00501 nM.

In the case of `COC(=O)N[C@H](C(=O)N1CCC[C@H]1c1ncc(-c2ccc(-c3ccc(-c4cnc(C5CCC6(CCOCC6)N5C(C)=O)[nH]4)cc3)cc2)[nH]1)C(C)C` (stereo partly drawn) [Example 31, methyl ((1S)-1-{[(2S)-2-(4-{4′-[2-(1-acetyl-8-oxa-1-azaspiro[4.5]dec-2-yl)-1H-imidazol-4-yl]-4-biphenylyl}-1H-imidazol-2-yl)-1-pyrrolidinyl}carbonyl]-2-methylpropyl)carbamate], the EC50 [1] is reported as 0.316 nM and the EC50 [2] is reported as 0.0126 nM.

With `COC(=O)N[C@H](C(=O)N1CC2(CC1c1ncc(-c3ccc(-c4ccc(-c5cnc([C@@H]6CCCN6C(=O)[C@@H](NC(=O)OC)C(C)C)[nH]5)cc4)cc3)[nH]1)CN(C(C)=O)C2)C(C)C` (stereo partly drawn) [Example 25, methyl [(1S)-1-({(2S)-2-[4-(4′-{2-[2-acetyl-6-((2S)-3-methyl-2-{[(methyloxy)carbonyl]amino}butanoyl)-2,6-diazaspiro[3.4]oct-7-yl]-1H-imidazol-4-yl}-4-biphenylyl)-1H-imidazol-2-yl]-1-pyrrolidinyl}carbonyl)-2-methylpropyl]carbamate] the EC50 [1] was 1.26 nM and the EC50 [2] was 0.158 nM.

For `COC(=O)N[C@H](C(=O)N1CCC[C@H]1c1ncc(-c2ccc(-c3ccc(-c4c[nH]c(C5CCC6(CCC(F)(F)CC6)N5C(=O)[C@@H](NC(=O)OC)C(C)C)n4)cc3)cc2)[nH]1)C(C)C` (stereo partly drawn) [Example 32, methyl [(1S)-1-({(2S)-2-[4-(4′-{2-[8,8-difluoro-1-((2S)-3-methyl-2-{[(methyloxy)carbonyl]amino}butanoyl)-1-azaspiro[4.5]dec-2-yl]-1H-imidazol-4-yl}-4-biphenylyl)-1H-imidazol-2-yl]-1-pyrrolidinyl}carbonyl)-2-methylpropyl]carbamate], the EC50 [1] was 1.58 nM and the EC50 [2] was 0.0158 nM.

`COC(=O)N[C@H](C(=O)N1CC2(CC1c1ncc(-c3ccc(-c4ccc(-c5cnc([C@@H]6CCCN6C(=O)[C@@H](NC(=O)OC)C(C)C)[nH]5)cc4)cc3)[nH]1)CN(C(=O)OC)C2)C(C)C` (stereo partly drawn) [Example 26, methyl 6-{N-[(methyloxy)carbonyl]-L-valyl}-7-(4-{4′-[2-((2S)-{N-[(methyloxy)carbonyl]-L-valyl}-2-pyrrolidinyl)-1H-imidazol-4-yl]-4-biphenylyl}-1H-imidazol-2-yl)-2,6-diazaspiro[3.4]octane-2-carboxylate] gave an EC50 [1] of 2 nM and an EC50 [2] of 0.0501 nM.

For `COC(=O)N[C@H](C(=O)N1CCC[C@H]1c1ncc(-c2ccc(-c3ccc(-c4cnc([C@@H]5CC6(CN5C(=O)[C@@H](NC(=O)OC)C(C)C)CC(F)(F)C6)[nH]4)cc3)cc2)[nH]1)C(C)C` [Example 29, methyl [(1S)-1-({(2S)-2-[4-(4′-{2-[(7S)-2,2-difluoro-6-((2S)-3-methyl-2-{[(methyloxy)carbonyl]amino}butanoyl)-6-azaspiro[3.4]oct-7-yl]-1H-imidazol-4-yl}-4-biphenylyl)-1H-imidazol-2-yl]-1-pyrrolidinyl}carbonyl)-2-methylpropyl]carbamate], the EC50 [1] was 0.1 nM and the EC50 [2] was 0.00316 nM.

In the case of `COC(=O)N[C@H](C(=O)N1CCC[C@H]1c1ncc(-c2ccc(-c3ccc(-c4c[nH]c(C5CCC6(CCS(=O)(=O)CC6)N5C(=O)[C@@H](NC(=O)OC)C(C)C)n4)cc3)cc2)[nH]1)C(C)C` (stereo partly drawn) [Example 37, methyl [(1S)-2-methyl-1-({(2S)-2-[4-(4′-{2-[1-((2S)-3-methyl-2-{[(methyloxy)carbonyl]amino}butanoyl)-8,8-dioxido-8-thia-1-azaspiro[4.5]dec-2-yl]-1H-imidazol-4-yl}-4-biphenylyl)-1H-imidazol-2-yl]-1-pyrrolidinyl}carbonyl)propyl]carbamate], the EC50 [1] is reported as 12.6 nM and the EC50 [2] is reported as 0.316 nM.

`COC(=O)N[C@H](C(=O)N1CC2(CCOCC2)C[C@H]1c1nc(-c2ccc(-c3ccc(-c4cnc([C@@H]5CC6(CCOCC6)CN5C(=O)[C@@H](NC(=O)OC)C(C)C)[nH]4)cc3)cc2)c[nH]1)C(C)C` [Example 18, dimethyl (4,4′-biphenyldiylbis{1H-imidazole-4,2-diyl(3S)-8-oxa-2-azaspiro[4.5]decane-3,2-diyl[(2S)-3-methyl-1-oxo-1,2-butanediyl]})biscarbamate] was tested, and the EC50 [1] was 0.02 nM and the EC50 [2] was 0.0126 nM.

`COC(=O)N[C@H](C(=O)N1CCC[C@H]1c1ncc(-c2ccc(-c3ccc(-c4cnc([C@@H]5CC6(CCC(F)(F)CC6)CN5C(=O)[C@@H](NC(=O)OC)C(C)C)[nH]4)cc3)cc2)[nH]1)C(C)C` [Example 17, methyl [(1S)-1-({(2S)-2-[4-(4′-{2-[8,8-difluoro-2-((2S)-3-methyl-2-{[(methyloxy)carbonyl]amino}butanoyl)-2-azaspiro[4.5]dec-3-yl]-1H-imidazol-4-yl}-4-biphenylyl)-1H-imidazol-2-yl]-1-pyrrolidinyl}carbonyl)-2-methylpropyl]carbamate] gave an EC50 [1] of 0.0398 nM and an EC50 [2] of 0.00251 nM.

In the case of `COC(=O)N[C@H](C(=O)N1CCC[C@H]1c1ncc(-c2ccc(-c3ccc(-c4cnc([C@@H]5CC6(CN5C(=O)[C@@H](NC(=O)OC)C(C)C)O[C@@H](C)[C@H](C)O6)[nH]4)cc3)cc2)[nH]1)C(C)C` [Example 11, methyl [(1S)-1-({(2S)-2-[4-(4′-{2-[(2S,3S,8S)-2,3-dimethyl-7-((2S)-3-methyl-2-{[(methyloxy)carbonyl]amino}butanoyl)-1,4-dioxa-7-azaspiro[4.4]non-8-yl]-1H-imidazol-5-yl}-4-biphenylyl)-1H-imidazol-2-yl]-1-pyrrolidinyl}carbonyl)-2-methylpropyl]carbamate], the EC50 [1] is reported as 1.26 nM and the EC50 [2] is reported as 0.01 nM.

Molecule `[2H]C1([2H])OC2(C[C@@H](c3ncc(-c4ccc(-c5ccc(-c6cnc([C@@H]7CCCN7C(=O)[C@@H](NC(=O)OC)C(C)C)[nH]6)cc5)cc4)[nH]3)N(C(=O)[C@@H](NC(=O)OC)C(C)C)C2)OC([2H])([2H])C1([2H])[2H]` [Example 8, methyl [(1S)-2-methyl-1-({(2S)-2-[4-(4′-{2-[(3S)-2-((2S)-3-methyl-2-{[(methyloxy)carbonyl]amino}butanoyl)-6,10-dioxa-2-azaspiro[4.5]dec-3-yl]-1H-imidazol-4-yl}-4-biphenylyl)-1H-imidazol-2-yl]-1-pyrrolidinyl}carbonyl)propyl]carbamate-d6] has an EC50 [1] of 0.0316 nM and an EC50 [2] of 0.00794 nM.

`COC(=O)N[C@@H](C)C(=O)N1CC2(C[C@H]1c1ncc(-c3ccc(-c4ccc(-c5cnc([C@@H]6CCCN6C(=O)[C@@H](NC(=O)OC)C(C)C)[nH]5)cc4)cc3)[nH]1)OCCCO2` [Example 5, methyl ((1S)-1-methyl-2-{(3S)-3-[4-(4′-{2-[(2S)-1-((2S)-3-methyl-2-{[(methyloxy)carbonyl]amino}butanoyl)-2-pyrrolidinyl]-1H-imidazol-4-yl}-4-biphenylyl)-1H-imidazol-2-yl]-6,10-dioxa-2-azaspiro[4.5]dec-2-yl}-2-oxoethyl)carbamate] was tested, and the EC50 [1] was 0.0794 nM and the EC50 [2] was 0.02 nM.

`COC(=O)N[C@H](C(=O)N1CC2(CC1c1ncc(-c3ccc(-c4ccc(-c5cnc([C@@H]6CCCN6C(=O)[C@@H](NC(=O)OC)C(C)C)[nH]5)cc4)cc3)[nH]1)CN(S(C)(=O)=O)C2)C(C)C` (stereo partly drawn) [Example 28, methyl [(1S)-2-methyl-1-({(2S)-2-[4-(4′-{2-[6-((2S)-3-methyl-2-{[(methyloxy)carbonyl]amino}butanoyl)-2-(methylsulfonyl)-2,6-diazaspiro[3.4]oct-7-yl]-1H-imidazol-4-yl}-4-biphenylyl)-1H-imidazol-2-yl]-1-pyrrolidinyl}carbonyl)propyl]carbamate] showed an EC50 [1] of 1.58 nM and an EC50 [2] of 0.0501 nM.

`COC(=O)N[C@H](C(=O)N1CCC[C@H]1c1ncc(-c2ccc(-c3ccc(-c4c[nH]c(C5CCC6(CCC(F)(F)CC6)N5C(C)=O)n4)cc3)cc2)[nH]1)C(C)C` (stereo partly drawn) [Example 36, methyl ((1S)-1-{[(2S)-2-(4-{4′-[2-(1-acetyl-8,8-difluoro-1-azaspiro[4.5]dec-2-yl)-1H-imidazol-4-yl]-4-biphenylyl}-1H-imidazol-2-yl)-1-pyrrolidinyl]carbonyl}-2-methylpropyl)carbamate] showed an EC50 [1] of 25.1 nM and an EC50 [2] of 0.1 nM.
